Test results from publication PMC9532703, “A novel small molecule RK-019 inhibits FGFR2-amplification gastric cancer cell proliferation and induces apoptosis in vitro and in vivo” (Frontiers in Pharmacology, 2022).

Assays:
Assay in all cases: Kinase selectivity panel
Type in all cases: biochemical
Conditions in all cases: read-out: Inhibition(%) @ 1 µM RK-019
PDK1(h) = target: T1, PDK1(h) (Homo sapiens, UniProt O15530)
T1 construct: purchased Eurofins Discovery Services (KinaseProfiler)
Description: (§1) Median-inhibitory concentration (IC50) and inhibition ratio of kinases by RK-019 was assessed by Eurofins Discovery Services (Dundee, United Kingdom) using the ATP-site competition binding assay in vitro. Firstly, gradient concentration of RK-019 against FGFRs, including FGFR1, FGFR2, FGFR3, and FGFR4, were tested. IC50 value was calculate by the GraphPad Prism software (v8.4.3, GraphPad Software, California, United States). Then, to measure the selectivity prolife of RK-019, a panel of 422 recombinant human kinases was screened at a concentration of 1 µM RK-019. Kinase MAP was drawn by webtools from Cell Signaling Technology, Inc. (www.cellsignal.com).

MRCKγ(h) = target: T2, MRCKγ(h) (Homo sapiens, UniProt Q6DT37)
T2 construct: purchased Eurofins Discovery Services (KinaseProfiler)
Description: as §1

cKit(h) = target: T3, cKit(h) (Homo sapiens, UniProt P10721)
T3 construct: purchased Eurofins Discovery Services (KinaseProfiler)
Description: as §1

Tie2(Y897S)(h) = target: T4, Tie2(Y897S)(h) (Homo sapiens, UniProt Q02763, Y897S)
T4 construct: purchased Eurofins Discovery Services (KinaseProfiler)
Description: as §1

EphA8(h) = target: T5, EphA8(h) (Homo sapiens, UniProt P29322)
T5 construct: purchased Eurofins Discovery Services (KinaseProfiler)
Description: as §1

SLK(h) = target: T6, SLK(h) (Homo sapiens, UniProt Q9H2G2)
T6 construct: purchased Eurofins Discovery Services (KinaseProfiler)
Description: as §1

[1] = target: T7, PI3 Kinase (p110a(E545K)/p85a)(h) (Homo sapiens, UniProt P42336, E545K)
T7 construct: purchased Eurofins Discovery Services (KinaseProfiler)
Description: as §1

STK33(h) = target: T8, STK33(h) (Homo sapiens, UniProt Q9BYT3)
T8 construct: purchased Eurofins Discovery Services (KinaseProfiler)
Description: as §1

Pim-1(h) = target: T9, Pim-1(h) (Homo sapiens, UniProt P11309)
T9 construct: purchased Eurofins Discovery Services (KinaseProfiler)
Description: as §1

Rsk2(h) = target: T10, Rsk2(h) (Homo sapiens, UniProt P51812)
T10 construct: purchased Eurofins Discovery Services (KinaseProfiler)
Description: as §1

[2] = target: T11, PI3 Kinase (p110a/p65a)(m) (Mus musculus, UniProt P42337)
T11 construct: purchased Eurofins Discovery Services (KinaseProfiler)
Description: as §1

FGFR2(N549H)(h) = target: T12, FGFR2(N549H)(h) (Homo sapiens, UniProt P21802, N549H)
T12 construct: purchased Eurofins Discovery Services (KinaseProfiler)
Description: as §1

PRP4(h) = target: T13, PRP4(h) (Homo sapiens, UniProt Q13523)
T13 construct: purchased Eurofins Discovery Services (KinaseProfiler)
Description: as §1

NIM1(h) = target: T14, NIM1(h) (Homo sapiens, UniProt Q8IY84)
T14 construct: purchased Eurofins Discovery Services (KinaseProfiler)
Description: as §1

CDK5/p35(h) = target: T15, CDK5/p35(h) (Homo sapiens, UniProt Q00535)
T15 construct: purchased Eurofins Discovery Services (KinaseProfiler)
Description: as §1

TSSK4(h) = target: T16, TSSK4(h) (Homo sapiens, UniProt Q6SA08)
T16 construct: purchased Eurofins Discovery Services (KinaseProfiler)
Description: as §1

PKR(h) = target: T17, PKR(h) (Homo sapiens, UniProt P19525)
T17 construct: purchased Eurofins Discovery Services (KinaseProfiler)
Description: as §1

Itk(h) = target: T18, Itk(h) (Homo sapiens, UniProt Q08881)
T18 construct: purchased Eurofins Discovery Services (KinaseProfiler)
Description: as §1

Lck(h) = target: T19, Lck(h) (Homo sapiens, UniProt P06239)
T19 construct: purchased Eurofins Discovery Services (KinaseProfiler)
Description: as §1

ChaK1(h) = target: T20, ChaK1(h) (Homo sapiens, UniProt Q96QT4)
T20 construct: purchased Eurofins Discovery Services (KinaseProfiler)
Description: as §1

MLK2(h) = target: T21, MLK2(h) (Homo sapiens, UniProt Q02779)
T21 construct: purchased Eurofins Discovery Services (KinaseProfiler)
Description: as §1

SGK3(h) = target: T22, SGK3(h) (Homo sapiens, UniProt Q96BR1)
T22 construct: purchased Eurofins Discovery Services (KinaseProfiler)
Description: as §1

Abl(h) = target: T23, Abl(h) (Homo sapiens, UniProt P00519)
T23 construct: purchased Eurofins Discovery Services (KinaseProfiler)
Description: as §1

JNK1α1(h) = target: T24, JNK1α1(h) (Homo sapiens, UniProt P45983)
T24 construct: purchased Eurofins Discovery Services (KinaseProfiler)
Description: as §1

Ret (V804L)(h) = target: T25, Ret (V804L)(h) (Homo sapiens, UniProt P07949, V804L)
T25 construct: purchased Eurofins Discovery Services (KinaseProfiler)
Description: as §1

MAK(h) = target: T26, MAK(h) (Homo sapiens, UniProt P20794)
T26 construct: purchased Eurofins Discovery Services (KinaseProfiler)
Description: as §1

KDR(h) = target: T27, KDR(h) (Homo sapiens, UniProt P35968)
T27 construct: purchased Eurofins Discovery Services (KinaseProfiler)
Description: as §1

ALK1(h) = target: T28, ALK1(h) (Homo sapiens, UniProt P37023)
T28 construct: purchased Eurofins Discovery Services (KinaseProfiler)
Description: as §1

Rse(h) = target: T29, Rse(h) (Homo sapiens, UniProt Q06418)
T29 construct: purchased Eurofins Discovery Services (KinaseProfiler)
Description: as §1

MuSK(h) = target: T30, MuSK(h) (Homo sapiens, UniProt O15146)
T30 construct: purchased Eurofins Discovery Services (KinaseProfiler)
Description: as §1

MRCKα(h) = target: T31, MRCKα(h) (Homo sapiens, UniProt Q5VT25)
T31 construct: purchased Eurofins Discovery Services (KinaseProfiler)
Description: as §1

LKB1(h) = target: T32, LKB1(h) (Homo sapiens, UniProt Q15831)
T32 construct: purchased Eurofins Discovery Services (KinaseProfiler)
Description: as §1

CDK17/cyclinY(h) = target: T33, CDK17/cyclinY(h) (Homo sapiens, UniProt Q00537)
T33 construct: purchased Eurofins Discovery Services (KinaseProfiler)
Description: as §1

ARK5(h) = target: T34, ARK5(h) (Homo sapiens, UniProt O60285)
T34 construct: purchased Eurofins Discovery Services (KinaseProfiler)
Description: as §1

STK16(h) = target: T35, STK16(h) (Homo sapiens, UniProt O75716)
T35 construct: purchased Eurofins Discovery Services (KinaseProfiler)
Description: as §1

SAPK2a(T106M)(h) = target: T36, SAPK2a(T106M)(h) (Homo sapiens, UniProt Q16539, T106M)
T36 construct: purchased Eurofins Discovery Services (KinaseProfiler)
Description: as §1

CLK2(h) = target: T37, CLK2(h) (Homo sapiens, UniProt P49760)
T37 construct: purchased Eurofins Discovery Services (KinaseProfiler)
Description: as §1

T27 sequence (P35968 20-1356): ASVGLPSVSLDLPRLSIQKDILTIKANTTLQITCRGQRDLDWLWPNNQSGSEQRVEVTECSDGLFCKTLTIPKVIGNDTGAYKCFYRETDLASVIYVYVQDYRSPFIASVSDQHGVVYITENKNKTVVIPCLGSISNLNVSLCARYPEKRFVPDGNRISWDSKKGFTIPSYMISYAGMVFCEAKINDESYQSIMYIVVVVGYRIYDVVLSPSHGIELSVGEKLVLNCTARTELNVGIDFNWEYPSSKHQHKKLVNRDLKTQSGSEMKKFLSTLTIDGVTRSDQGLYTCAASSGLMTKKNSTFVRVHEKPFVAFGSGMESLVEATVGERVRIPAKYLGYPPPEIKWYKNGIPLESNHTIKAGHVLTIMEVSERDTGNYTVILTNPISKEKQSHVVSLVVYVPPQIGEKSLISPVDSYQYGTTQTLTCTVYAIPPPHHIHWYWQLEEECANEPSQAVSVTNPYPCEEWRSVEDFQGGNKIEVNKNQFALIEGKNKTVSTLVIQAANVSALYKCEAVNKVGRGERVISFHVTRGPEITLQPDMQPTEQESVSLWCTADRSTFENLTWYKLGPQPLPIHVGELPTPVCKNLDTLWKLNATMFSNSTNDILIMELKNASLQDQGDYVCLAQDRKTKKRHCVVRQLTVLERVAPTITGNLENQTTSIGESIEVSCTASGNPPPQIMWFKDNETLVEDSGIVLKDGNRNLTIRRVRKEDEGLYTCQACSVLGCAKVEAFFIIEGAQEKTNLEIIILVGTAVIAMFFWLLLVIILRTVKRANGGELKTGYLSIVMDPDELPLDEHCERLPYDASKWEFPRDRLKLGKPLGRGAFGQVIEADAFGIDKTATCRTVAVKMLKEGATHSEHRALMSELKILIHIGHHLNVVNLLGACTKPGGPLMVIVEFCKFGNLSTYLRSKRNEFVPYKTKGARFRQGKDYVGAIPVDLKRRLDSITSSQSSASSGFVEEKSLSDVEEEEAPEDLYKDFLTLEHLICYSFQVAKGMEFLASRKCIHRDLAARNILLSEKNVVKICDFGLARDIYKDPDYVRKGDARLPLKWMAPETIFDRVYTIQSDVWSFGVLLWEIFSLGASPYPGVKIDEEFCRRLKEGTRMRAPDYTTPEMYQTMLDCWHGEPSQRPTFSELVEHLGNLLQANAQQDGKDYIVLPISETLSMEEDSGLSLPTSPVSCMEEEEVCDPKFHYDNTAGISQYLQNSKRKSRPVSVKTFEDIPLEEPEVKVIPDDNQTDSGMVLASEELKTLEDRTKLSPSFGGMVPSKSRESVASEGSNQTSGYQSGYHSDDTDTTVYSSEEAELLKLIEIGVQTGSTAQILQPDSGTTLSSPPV
T25 sequence (P07949 29-1114 V804L): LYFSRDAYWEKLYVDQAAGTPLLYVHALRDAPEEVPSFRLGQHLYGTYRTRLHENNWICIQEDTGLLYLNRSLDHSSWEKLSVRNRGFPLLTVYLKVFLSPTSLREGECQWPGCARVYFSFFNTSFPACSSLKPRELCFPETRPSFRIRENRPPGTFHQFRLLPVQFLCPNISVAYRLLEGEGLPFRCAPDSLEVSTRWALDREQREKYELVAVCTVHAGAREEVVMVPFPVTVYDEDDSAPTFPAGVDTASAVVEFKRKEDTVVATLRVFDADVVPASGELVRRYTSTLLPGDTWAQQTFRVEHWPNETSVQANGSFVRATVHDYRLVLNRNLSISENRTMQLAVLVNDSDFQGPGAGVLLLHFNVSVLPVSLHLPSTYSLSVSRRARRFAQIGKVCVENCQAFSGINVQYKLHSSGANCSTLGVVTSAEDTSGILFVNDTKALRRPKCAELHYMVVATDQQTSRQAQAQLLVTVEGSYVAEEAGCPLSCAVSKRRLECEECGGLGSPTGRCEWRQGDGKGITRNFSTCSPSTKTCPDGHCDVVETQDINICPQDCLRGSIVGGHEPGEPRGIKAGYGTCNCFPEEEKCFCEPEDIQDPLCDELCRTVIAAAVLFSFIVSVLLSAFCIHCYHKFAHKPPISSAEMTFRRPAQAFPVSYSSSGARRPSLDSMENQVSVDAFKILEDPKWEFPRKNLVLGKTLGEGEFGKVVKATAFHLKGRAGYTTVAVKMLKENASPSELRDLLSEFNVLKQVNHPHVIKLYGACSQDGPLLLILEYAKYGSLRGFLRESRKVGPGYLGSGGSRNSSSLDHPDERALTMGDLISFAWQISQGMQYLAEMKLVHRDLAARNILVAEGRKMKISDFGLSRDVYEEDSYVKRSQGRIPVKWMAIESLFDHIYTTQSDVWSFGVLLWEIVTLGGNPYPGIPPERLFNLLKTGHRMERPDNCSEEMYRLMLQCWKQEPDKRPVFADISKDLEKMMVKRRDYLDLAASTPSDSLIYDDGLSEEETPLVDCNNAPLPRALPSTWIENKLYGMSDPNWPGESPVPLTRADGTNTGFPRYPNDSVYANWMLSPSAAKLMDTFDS
T4 sequence (Q02763 23-1124 Y897S): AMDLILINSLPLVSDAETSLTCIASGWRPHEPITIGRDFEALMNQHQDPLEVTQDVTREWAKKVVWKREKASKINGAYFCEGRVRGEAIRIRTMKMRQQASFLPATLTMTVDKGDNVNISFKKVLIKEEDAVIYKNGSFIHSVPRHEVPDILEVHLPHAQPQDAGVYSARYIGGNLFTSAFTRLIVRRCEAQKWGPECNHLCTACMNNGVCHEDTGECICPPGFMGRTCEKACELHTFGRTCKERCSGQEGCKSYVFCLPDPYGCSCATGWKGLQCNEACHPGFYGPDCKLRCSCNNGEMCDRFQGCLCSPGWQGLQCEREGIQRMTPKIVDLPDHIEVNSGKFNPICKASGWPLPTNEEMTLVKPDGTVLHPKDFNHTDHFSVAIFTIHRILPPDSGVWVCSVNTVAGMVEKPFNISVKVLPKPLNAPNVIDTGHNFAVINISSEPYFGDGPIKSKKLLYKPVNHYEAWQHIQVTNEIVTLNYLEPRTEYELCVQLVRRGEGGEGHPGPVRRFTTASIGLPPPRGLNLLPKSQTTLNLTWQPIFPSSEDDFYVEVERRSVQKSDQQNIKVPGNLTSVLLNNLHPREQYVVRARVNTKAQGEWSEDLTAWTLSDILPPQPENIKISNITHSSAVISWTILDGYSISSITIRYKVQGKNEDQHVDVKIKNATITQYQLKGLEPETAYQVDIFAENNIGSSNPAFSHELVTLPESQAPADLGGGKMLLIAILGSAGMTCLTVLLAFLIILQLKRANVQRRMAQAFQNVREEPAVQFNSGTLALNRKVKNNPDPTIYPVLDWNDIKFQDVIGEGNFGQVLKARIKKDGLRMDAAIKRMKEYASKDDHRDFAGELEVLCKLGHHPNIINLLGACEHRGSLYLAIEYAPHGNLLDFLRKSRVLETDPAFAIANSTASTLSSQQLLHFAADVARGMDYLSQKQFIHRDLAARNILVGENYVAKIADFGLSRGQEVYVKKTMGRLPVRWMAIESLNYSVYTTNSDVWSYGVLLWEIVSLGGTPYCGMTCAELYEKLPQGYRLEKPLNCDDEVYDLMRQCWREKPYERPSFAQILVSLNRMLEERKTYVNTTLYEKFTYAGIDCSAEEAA
T6 sequence (Q9H2G2 whole entry): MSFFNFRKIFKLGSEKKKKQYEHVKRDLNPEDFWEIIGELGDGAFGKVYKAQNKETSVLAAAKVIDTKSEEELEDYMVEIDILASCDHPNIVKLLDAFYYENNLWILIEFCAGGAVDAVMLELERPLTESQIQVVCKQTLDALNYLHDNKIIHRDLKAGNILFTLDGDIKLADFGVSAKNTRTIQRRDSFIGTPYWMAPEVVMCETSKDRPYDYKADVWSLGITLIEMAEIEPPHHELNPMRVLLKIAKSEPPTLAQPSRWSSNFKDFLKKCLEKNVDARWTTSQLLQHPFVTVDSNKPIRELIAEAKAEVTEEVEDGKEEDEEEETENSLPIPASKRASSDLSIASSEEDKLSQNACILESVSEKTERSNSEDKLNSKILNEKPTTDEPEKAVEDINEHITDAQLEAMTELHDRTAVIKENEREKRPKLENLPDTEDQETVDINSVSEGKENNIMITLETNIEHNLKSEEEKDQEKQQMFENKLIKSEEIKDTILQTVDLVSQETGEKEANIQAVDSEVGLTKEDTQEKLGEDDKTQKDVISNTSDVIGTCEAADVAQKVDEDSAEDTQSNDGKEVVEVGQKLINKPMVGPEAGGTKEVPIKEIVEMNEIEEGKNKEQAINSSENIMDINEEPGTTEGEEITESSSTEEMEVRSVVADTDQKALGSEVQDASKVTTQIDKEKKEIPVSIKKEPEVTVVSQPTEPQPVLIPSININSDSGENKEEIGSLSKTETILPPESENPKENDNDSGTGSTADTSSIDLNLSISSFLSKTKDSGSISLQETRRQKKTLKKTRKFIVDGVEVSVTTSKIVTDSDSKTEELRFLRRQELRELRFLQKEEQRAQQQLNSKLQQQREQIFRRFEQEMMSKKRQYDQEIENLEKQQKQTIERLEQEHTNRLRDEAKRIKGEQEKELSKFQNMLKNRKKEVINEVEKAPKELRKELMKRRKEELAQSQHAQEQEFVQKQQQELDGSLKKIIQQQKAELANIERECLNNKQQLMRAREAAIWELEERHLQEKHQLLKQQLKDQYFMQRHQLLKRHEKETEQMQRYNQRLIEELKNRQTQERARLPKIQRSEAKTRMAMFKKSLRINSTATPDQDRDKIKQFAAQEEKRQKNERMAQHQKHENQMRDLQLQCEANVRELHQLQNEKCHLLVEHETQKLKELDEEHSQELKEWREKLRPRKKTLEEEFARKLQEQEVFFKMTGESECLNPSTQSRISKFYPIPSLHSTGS
T36 sequence (Q16539 whole entry T106M): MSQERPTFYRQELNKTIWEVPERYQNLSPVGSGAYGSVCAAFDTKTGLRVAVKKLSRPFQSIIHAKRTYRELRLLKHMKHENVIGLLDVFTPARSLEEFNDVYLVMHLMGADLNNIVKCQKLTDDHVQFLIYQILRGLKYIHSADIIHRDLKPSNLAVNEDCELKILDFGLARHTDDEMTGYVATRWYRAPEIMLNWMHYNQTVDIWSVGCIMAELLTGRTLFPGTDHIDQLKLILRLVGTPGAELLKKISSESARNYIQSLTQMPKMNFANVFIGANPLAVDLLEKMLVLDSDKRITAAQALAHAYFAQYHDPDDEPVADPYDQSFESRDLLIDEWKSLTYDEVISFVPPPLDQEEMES

COc1cc(OC)cc(N(CCN[C@H](C)CO)c2ccc3ncc(-c4cnn(C)c4)c(=O)n3c2)c1 [RK-019, (R)-7-((3,5-dimethoxyphenyl) (2-((1-hydroxypropan-2-yl)amino)ethyl)amino)-3-(1-methyl-1H-pyrazol-4-yl)-4H-pyrido [1,2-a]pyrimidin-4-one] was tested, and the activity at 1 µM (PDK1(h)) was 110%, the activity at 1 µM (MRCKγ(h)) was 94% and the activity at 1 µM (cKit(h)) was 73%. It also gave an activity at 1 µM (Tie2(Y897S)(h)) of 77%, an activity at 1 µM (EphA8(h)) of 59% and an activity at 1 µM (SLK(h)) of 99%. It also gave an activity at 1 µM [1] of 100%, an activity at 1 µM (STK33(h)) of 98% and an activity at 1 µM (Pim-1(h)) of 111%. The activity at 1 µM (Rsk2(h)) was 149%, the activity at 1 µM [2] was 100% and the activity at 1 µM (FGFR2(N549H)(h)) was -1%. For the same molecule, the activity at 1 µM (PRP4(h)) was 90%, the activity at 1 µM (NIM1(h)) was 103% and the activity at 1 µM (CDK5/p35(h)) was 106%. The activity at 1 µM (TSSK4(h)) was 106%, the activity at 1 µM (PKR(h)) was 50% and the activity at 1 µM (Itk(h)) was 104%. It also gave an activity at 1 µM (Lck(h)) of 30%, an activity at 1 µM (ChaK1(h)) of 100% and an activity at 1 µM (MLK2(h)) of 103%. The activity at 1 µM (SGK3(h)) was 97%, the activity at 1 µM (Abl(h)) was 40% and the activity at 1 µM (JNK1α1(h)) was 96%. The activity at 1 µM (Ret (V804L)(h)) was 92%, the activity at 1 µM (MAK(h)) was 110% and the activity at 1 µM (KDR(h)) was 9%. For the same molecule, the activity at 1 µM (ALK1(h)) was 98%, the activity at 1 µM (Rse(h)) was 104% and the activity at 1 µM (MuSK(h)) was 105%. The activity at 1 µM (MRCKα(h)) was 103%, the activity at 1 µM (LKB1(h)) was 94% and the activity at 1 µM (CDK17/cyclinY(h)) was 104%. The activity at 1 µM (ARK5(h)) was 146%, the activity at 1 µM (STK16(h)) was 113% and the activity at 1 µM (SAPK2a(T106M)(h)) was 90%. It also gave an activity at 1 µM (CLK2(h)) of 107%.
